{
  "source": "patent US20070049518A1",
  "about": "“Novel method of treatment of inflammatory skin conditions” (priority 2005, published 2007)",
  "key": {"[1]": {"molecular_target": "T1, recombinant human kallikrein 7 (Homo sapiens, UniProt P49862)", "T1 construct": "purchased R&D Systems Inc", "T1 sequence (P49862 30-253)": "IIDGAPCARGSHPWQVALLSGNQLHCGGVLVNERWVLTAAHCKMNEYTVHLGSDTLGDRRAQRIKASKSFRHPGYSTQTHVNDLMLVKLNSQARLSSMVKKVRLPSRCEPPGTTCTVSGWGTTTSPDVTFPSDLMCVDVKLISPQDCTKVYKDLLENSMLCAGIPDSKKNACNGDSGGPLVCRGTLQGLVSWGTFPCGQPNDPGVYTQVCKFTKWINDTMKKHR", "test": "Selectivity profile, kallikrein 7", "type": "biochemical", "details": "read-out: inhibition at 0.1 mM, Kallikrein 7", "procedure": "Inhibitory activity was tested in reaction mixtures (0.1 ml) containing 2% (v/v) DMSO vehicle±compound plus additions as follows. V8 protease: 90 mM MOPS (sodium) buffer pH 7.0, […] calcium chloride, 0.045% Brij 35, 10 μM Mca-Leu-Glu-Val-Asp-Gly-Trp-Lys(Dnp)-amide (Bachem) and V8 (BioCentrum Ltd; 30 ng). Staphopain A and B: 90 mM MOPS (sodium) buffer pH 7.0, 1.8 mM cysteine-HCl (pH-adjusted with NaOH), 0.045% Brij 35, 0.1 mM Z-Phe-Arg-AMC hydrochloride (Bachem) and staphopain A or B (BioCentrum Ltd; 30 ng). Human kallikrein 5: 0.1M sodium phosphate buffer pH 8.0, 0.045% Brij 35, 0.1 mM Boc-Val-Pro-Arg-AMC (Sigma) and recombinant human kallikrein 5 (R&D Systems Inc; 6 ng). Human kallikrein 7: 72 mM Tris-HCl pH 8.0, 0.033% Brij 35, 1.2 mM S-2586 (Chromogenix Instrumentation Laboratory SpA) and recombinant human kallikrein 7 (R&D Systems Inc; 0.6 μg) that had been thermolysin-activated according to the manufacturer's instructions. Human angiotensin-converting enzyme (ACE): 45 mM MES (sodium) buffer pH 6.5, 0.045% Brij 35, 10 μM Mca-[…]Dnp)-OH(R&D Systems Inc) and recombinant human ACE (R&D Systems Inc; 1.3 ng). Human cathepsin D: 0.1M sodium acetate buffer pH 3.5, 0.2M sodium chloride, 0.045% Brij 35, 10 μM Mca-Pro-Leu-Gly-Leu-Dap(Dnp)-Ala-Arg-amide (Bachem) and recombinant human cathepsin D (R&D Systems Inc; 8 ng) activated according to the manufacturer's instructions. […]"}, "aureolysin": {"molecular_target": "aureolysin (Staphylococcus aureus, UniProt P81177)", "sequence (P81177 209-509)": "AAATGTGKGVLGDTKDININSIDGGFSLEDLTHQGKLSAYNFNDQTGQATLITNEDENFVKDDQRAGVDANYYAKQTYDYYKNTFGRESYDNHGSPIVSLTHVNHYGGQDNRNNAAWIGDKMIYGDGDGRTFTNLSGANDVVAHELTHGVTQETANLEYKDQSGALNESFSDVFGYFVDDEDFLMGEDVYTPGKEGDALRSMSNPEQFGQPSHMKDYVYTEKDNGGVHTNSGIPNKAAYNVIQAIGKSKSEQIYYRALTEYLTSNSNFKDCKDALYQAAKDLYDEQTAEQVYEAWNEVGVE", "test": "Inhibition of aureolysin-mediated pro-uPA activation", "details": "for Relative activity: Aureolysin 1 μg/ml, pH 5.6", "from_the_text": "Under these conditions the extent of pro-uPA cleavage as assessed by uPA activity was directly proportional to the concentration of aureolysin in the assay."}},
  "data": [
    {"smiles": "CNC(=O)[C@@H](NC(=O)[C@H](CC(=O)NO)CC(C)C)C(C)(C)C", "note": "[Compound 12, (S)—N1-((S)-3,3-dimethyl-1-(methylamino)-1-oxobutan-2-yl)-N4-hydroxy-2-isobutylsuccinamide]", "values": [
      {"measurement": "inhibition at 100 µM", "setting": "[1]", "result": 0, "unit": "%"},
      {"measurement": "IC50", "setting": "aureolysin", "result": 2400, "unit": "nM"},
      {"measurement": "Relative activity", "setting": "aureolysin; Compound 12 25 μM", "result": 37, "unit": "%"},
      {"measurement": "Relative activity", "setting": "aureolysin; Compound 12 317 μM", "result": 8, "unit": "%"}
    ]}
  ]
}
